The text below walks through data of patent US12581252B2, “Substituted pyrrolo[3,4-b]pyridines as PI3K-α inhibitors” (Relay Therapeutics, Inc., priority 2020, dated 2026).

Where only a bound is given, the exact number is not on record here.

Tested on in the first test: not listed separately
Put plainly: cells. As to conditions: Homo sapiens, MCF-10A, read-out: MCF10A IC50.
One may read the IC50 as the concentration needed to halve the response being measured. Turning to `O=C(Nc1cc(-c2cccc3nccn23)cc2c1C(c1cc(F)ccc1Cl)NC2=O)c1cc(F)cc(C(F)(F)F)c1` (stereo not shown) [Compound I-1013], the IC50 is under 1000 nM.

For the compound `O=C(Nc1cc(Br)cc2c1C(c1cc(F)ccc1C(F)(F)F)NC2=O)c1cc(F)cc(C(F)(F)F)c1` (stereo not shown) [Compound I-1014], the IC50 is under 1000 nM.

In the case of `O=C(Nc1cc(-n2ccnc2)cc2c1C(c1cc(F)ccc1Cl)NC2=O)c1cc(F)cc(C(F)(F)F)c1` (stereo not shown) [Compound I-1015], the IC50 is under 1000 nM.

For the compound `Cn1cc(-c2cc(NC(=O)c3cc(F)cc(C(F)(F)F)c3)c3c(c2)C(=O)NC3c2cc(F)ccc2Cl)ncc1=O` (stereo not shown) [Compound I-1016], the IC50 was under 1000 nM.

Regarding `Cc1[nH]ncc1Nc1cc(NC(=O)c2cc(F)cc(C(F)(F)F)c2)c2c(c1)C(=O)NC2c1cc(F)ccc1Cl` (stereo not shown) [Compound I-1017], the IC50 is under 1000 nM.

`CS(=N)(=O)Cc1cc(NC(=O)c2cc(F)cc(C(F)(F)F)c2)c2c(c1)C(=O)NC2c1cc(F)ccc1Cl` (stereo not shown) [Compound I-1018]: the IC50 is under 1000 nM.

Consider `O=C(Nc1cc(C2CC(O)C2)cc2c1C(c1cc(F)ccc1Cl)NC2=O)c1cc(F)cc(C(F)(F)F)c1` (stereo not shown) [Compound I-1019], for which the IC50 is under 1000 nM.

As to `COCCc1cc(NC(=O)c2cc(F)cc(C(F)(F)F)c2)c2c(c1)C(=O)NC2c1cc(F)ccc1Cl` (stereo not shown) [Compound I-1020], the IC50 was under 1000 nM.

`O=C(Nc1cc(-c2cnc3ncnn3c2)cc2c1[C@H](c1cc(F)ccc1Cl)NC2=O)c1cc(F)cc(C(F)(F)F)c1` [Compound I-1024]: the IC50 is under 1000 nM.

In the case of `O=C(Nc1cc(-c2nc3cnccc3[nH]2)cc2c1C(c1cc(F)ccc1Cl)NC2=O)c1cc(F)cc(C(F)(F)F)c1` (stereo not shown) [Compound I-1025], the IC50 lay in the range of 1000 to 5000 nM.

As for `O=C(Nc1cc(-c2nc3ncccc3[nH]2)cc2c1C(c1cc(F)ccc1Cl)NC2=O)c1cc(F)cc(C(F)(F)F)c1` (stereo not shown) [Compound I-1026], the IC50 was under 1000 nM.

In the case of `O=C1CCc2c(cccc2-c2cc(NC(=O)c3cc(F)cc(C(F)(F)F)c3)c3c(c2)C(=O)NC3c2cc(F)ccc2Cl)N1` (stereo not shown) [Compound I-1028], the IC50 is under 1000 nM.

Take `Cn1cc2cc(-c3cc(NC(=O)c4cc(F)cc(C(F)(F)F)c4)c4c(c3)C(=O)NC4c3cc(F)ccc3Cl)ccc2n1` (stereo not shown) [Compound I-1029]: the IC50 was under 1000 nM.

Consider `Cn1nncc1-c1cc(NC(=O)c2cc(F)cc(C(F)(F)F)c2)c2c(c1)C(=O)NC2c1cc(F)ccc1Cl` (stereo not shown) [Compound I-1030], for which the IC50 was under 1000 nM.

Consider `O=C(Nc1cc(-c2cccc3nonc23)cc2c1C(c1cc(F)ccc1Cl)NC2=O)c1cc(F)cc(C(F)(F)F)c1` (stereo not shown) [Compound I-1031], for which the half-inhibitory concentration (IC50) was under 1000 nM.

Turning to `Cc1cc2ncc(-c3cc(NC(=O)c4cc(F)cc(C(F)(F)F)c4)c4c(c3)C(=O)NC4c3cc(F)ccc3Cl)cn2n1` (stereo not shown) [Compound I-1032], the IC50 was under 1000 nM.

Consider `O=C(Nc1cc(-c2ccc3[nH]ncc3c2)cc2c1C(c1cc(F)ccc1Cl)NC2=O)c1cc(F)cc(C(F)(F)F)c1` (stereo not shown) [Compound I-1033], for which the IC50 was under 1000 nM.

Take `O=C(Nc1cc(-c2ccnn2CC2CC2)cc2c1C(c1cc(F)ccc1Cl)NC2=O)c1cc(F)cc(C(F)(F)F)c1` (stereo not shown) [Compound I-1038]: the IC50 was under 1000 nM.

In the case of `Cc1noc2ncc(-c3cc(NC(=O)c4cc(F)cc(C(F)(F)F)c4)c4c(c3)C(=O)NC4c3cc(F)ccc3Cl)cc12` (stereo not shown) [Compound I-1039], the IC50 is under 1000 nM.

For `O=C(Nc1cc(N2CCn3ncnc3C2)cc2c1C(c1cc(F)ccc1Cl)NC2=O)c1cc(F)cc(C(F)(F)F)c1` (stereo not shown) [Compound I-1040], the IC50 was 1000 to 5000 nM.

`O=C(Nc1cc(-c2cccc3c2CCNC3=O)cc2c1C(c1cc(F)ccc1Cl)NC2=O)c1cc(F)cc(C(F)(F)F)c1` (stereo not shown) [Compound I-1042]: the IC50 was under 1000 nM.

Turning to `O=C1COCc2cc(-c3cc(NC(=O)c4cc(F)cc(C(F)(F)F)c4)c4c(c3)C(=O)NC4c3cc(F)ccc3Cl)ccc2N1` (stereo not shown) [Compound I-1043], the IC50 was under 1000 nM.

In the case of `O=C(Nc1cc(-c2cnn3cccnc23)cc2c1C(c1cc(F)ccc1Cl)NC2=O)c1cc(F)cc(C(F)(F)F)c1` (stereo not shown) [Compound I-1046], the IC50 was under 1000 nM.

For another test, the target named is H1047R PIK3CA enzyme (Homo sapiens, UniProt P42336, H1047R). The test is described as follows: ADP-Glo Biochemical PIK3CA Kinase Assay.
H1047R PIK3CA enzyme, sequence (P42336 whole entry H1047R): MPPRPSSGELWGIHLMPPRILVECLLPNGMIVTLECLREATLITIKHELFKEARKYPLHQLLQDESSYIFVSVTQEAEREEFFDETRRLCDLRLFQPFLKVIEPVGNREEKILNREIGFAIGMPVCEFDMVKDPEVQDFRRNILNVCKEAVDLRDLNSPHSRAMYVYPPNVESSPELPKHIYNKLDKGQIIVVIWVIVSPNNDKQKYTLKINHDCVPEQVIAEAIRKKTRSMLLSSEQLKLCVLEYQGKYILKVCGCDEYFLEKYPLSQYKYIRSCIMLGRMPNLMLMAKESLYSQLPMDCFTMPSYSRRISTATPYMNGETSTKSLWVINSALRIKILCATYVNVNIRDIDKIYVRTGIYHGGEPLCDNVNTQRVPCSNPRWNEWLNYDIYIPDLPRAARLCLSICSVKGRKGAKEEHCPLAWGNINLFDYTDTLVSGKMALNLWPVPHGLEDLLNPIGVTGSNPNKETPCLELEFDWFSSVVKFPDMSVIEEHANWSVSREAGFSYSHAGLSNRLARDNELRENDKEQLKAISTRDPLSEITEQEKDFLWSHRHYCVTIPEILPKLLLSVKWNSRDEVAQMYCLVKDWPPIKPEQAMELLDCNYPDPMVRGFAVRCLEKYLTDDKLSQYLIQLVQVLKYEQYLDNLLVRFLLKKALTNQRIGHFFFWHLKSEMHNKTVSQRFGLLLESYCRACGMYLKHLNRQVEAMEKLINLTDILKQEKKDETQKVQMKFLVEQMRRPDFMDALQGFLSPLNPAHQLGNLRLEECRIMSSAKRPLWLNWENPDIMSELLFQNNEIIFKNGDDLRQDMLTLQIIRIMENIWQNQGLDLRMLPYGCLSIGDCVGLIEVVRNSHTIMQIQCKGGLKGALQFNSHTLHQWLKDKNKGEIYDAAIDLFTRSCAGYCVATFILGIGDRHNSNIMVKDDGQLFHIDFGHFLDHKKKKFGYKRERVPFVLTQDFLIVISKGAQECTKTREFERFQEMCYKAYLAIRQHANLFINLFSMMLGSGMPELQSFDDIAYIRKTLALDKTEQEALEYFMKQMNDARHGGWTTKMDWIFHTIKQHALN
H1047R PIK3CA enzyme, sequence (P27986 whole entry partner): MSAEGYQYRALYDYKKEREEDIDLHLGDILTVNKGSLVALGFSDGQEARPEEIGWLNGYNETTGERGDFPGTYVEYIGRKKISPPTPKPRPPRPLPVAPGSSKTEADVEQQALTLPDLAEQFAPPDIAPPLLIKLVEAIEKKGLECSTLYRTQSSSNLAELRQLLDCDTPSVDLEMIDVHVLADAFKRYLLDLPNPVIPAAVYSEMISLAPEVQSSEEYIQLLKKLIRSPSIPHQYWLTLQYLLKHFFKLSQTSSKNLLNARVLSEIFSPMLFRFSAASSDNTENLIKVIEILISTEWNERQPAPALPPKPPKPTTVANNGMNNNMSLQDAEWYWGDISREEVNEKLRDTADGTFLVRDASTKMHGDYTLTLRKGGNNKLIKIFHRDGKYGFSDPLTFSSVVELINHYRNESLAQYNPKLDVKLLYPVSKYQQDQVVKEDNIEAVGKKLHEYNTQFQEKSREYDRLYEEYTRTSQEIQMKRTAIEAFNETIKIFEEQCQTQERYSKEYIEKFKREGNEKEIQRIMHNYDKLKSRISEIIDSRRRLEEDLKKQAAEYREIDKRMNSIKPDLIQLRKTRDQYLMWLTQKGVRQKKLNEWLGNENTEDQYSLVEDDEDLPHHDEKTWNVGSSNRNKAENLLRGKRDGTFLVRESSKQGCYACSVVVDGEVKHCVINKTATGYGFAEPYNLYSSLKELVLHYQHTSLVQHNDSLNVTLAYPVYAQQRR
Settings: not given
Take `O=C(Nc1cc(-c2cccc3nccn23)cc2c1C(c1cc(F)ccc1Cl)NC2=O)c1cc(F)cc(C(F)(F)F)c1` (stereo not shown) [Compound I-1013]: the IC50 is at most 100 nM.

`O=C(Nc1cc(Br)cc2c1C(c1cc(F)ccc1C(F)(F)F)NC2=O)c1cc(F)cc(C(F)(F)F)c1` (stereo not shown) [Compound I-1014] registered an IC50 of at most 100 nM.

`O=C(Nc1cc(-n2ccnc2)cc2c1C(c1cc(F)ccc1Cl)NC2=O)c1cc(F)cc(C(F)(F)F)c1` (stereo not shown) [Compound I-1015] displayed an IC50 of at most 100 nM.

`Cn1cc(-c2cc(NC(=O)c3cc(F)cc(C(F)(F)F)c3)c3c(c2)C(=O)NC3c2cc(F)ccc2Cl)ncc1=O` (stereo not shown) [Compound I-1016] yielded an IC50 of at most 100 nM.

For `Cc1[nH]ncc1Nc1cc(NC(=O)c2cc(F)cc(C(F)(F)F)c2)c2c(c1)C(=O)NC2c1cc(F)ccc1Cl` (stereo not shown) [Compound I-1017], the IC50 was at most 100 nM.

Turning to `CS(=N)(=O)Cc1cc(NC(=O)c2cc(F)cc(C(F)(F)F)c2)c2c(c1)C(=O)NC2c1cc(F)ccc1Cl` (stereo not shown) [Compound I-1018], the IC50 is at most 100 nM.

With `O=C(Nc1cc(C2CC(O)C2)cc2c1C(c1cc(F)ccc1Cl)NC2=O)c1cc(F)cc(C(F)(F)F)c1` (stereo not shown) [Compound I-1019], the IC50 was at most 100 nM.

As for `COCCc1cc(NC(=O)c2cc(F)cc(C(F)(F)F)c2)c2c(c1)C(=O)NC2c1cc(F)ccc1Cl` (stereo not shown) [Compound I-1020], the IC50 was at most 100 nM.

With `O=C(Nc1cc(-c2cnc3ncnn3c2)cc2c1[C@H](c1cc(F)ccc1Cl)NC2=O)c1cc(F)cc(C(F)(F)F)c1` [Compound I-1024], the IC50 is at most 100 nM.

`O=C(Nc1cc(-c2nc3cnccc3[nH]2)cc2c1C(c1cc(F)ccc1Cl)NC2=O)c1cc(F)cc(C(F)(F)F)c1` (stereo not shown) [Compound I-1025]: the IC50 was at most 100 nM.

Turning to `O=C(Nc1cc(-c2nc3ncccc3[nH]2)cc2c1C(c1cc(F)ccc1Cl)NC2=O)c1cc(F)cc(C(F)(F)F)c1` (stereo not shown) [Compound I-1026], the IC50 was at most 100 nM.

On to `O=C1CCc2c(cccc2-c2cc(NC(=O)c3cc(F)cc(C(F)(F)F)c3)c3c(c2)C(=O)NC3c2cc(F)ccc2Cl)N1` (stereo not shown) [Compound I-1028], for which the IC50 is at most 100 nM.

As for `Cn1cc2cc(-c3cc(NC(=O)c4cc(F)cc(C(F)(F)F)c4)c4c(c3)C(=O)NC4c3cc(F)ccc3Cl)ccc2n1` (stereo not shown) [Compound I-1029], the IC50 was at most 100 nM.

`Cn1nncc1-c1cc(NC(=O)c2cc(F)cc(C(F)(F)F)c2)c2c(c1)C(=O)NC2c1cc(F)ccc1Cl` (stereo not shown) [Compound I-1030] registered a 50% inhibitory concentration (IC50) of at most 100 nM.

Compound `O=C(Nc1cc(-c2cccc3nonc23)cc2c1C(c1cc(F)ccc1Cl)NC2=O)c1cc(F)cc(C(F)(F)F)c1` (stereo not shown) [Compound I-1031] registered an IC50 of at most 100 nM.

`Cc1cc2ncc(-c3cc(NC(=O)c4cc(F)cc(C(F)(F)F)c4)c4c(c3)C(=O)NC4c3cc(F)ccc3Cl)cn2n1` (stereo not shown) [Compound I-1032] displayed a 50% inhibitory concentration (IC50) of at most 100 nM.

Take `O=C(Nc1cc(-c2ccc3[nH]ncc3c2)cc2c1C(c1cc(F)ccc1Cl)NC2=O)c1cc(F)cc(C(F)(F)F)c1` (stereo not shown) [Compound I-1033]: the IC50 is at most 100 nM.

`O=C(Nc1cc(-c2ccnn2CC2CC2)cc2c1C(c1cc(F)ccc1Cl)NC2=O)c1cc(F)cc(C(F)(F)F)c1` (stereo not shown) [Compound I-1038] gave an IC50 of at most 100 nM.

As for `Cc1noc2ncc(-c3cc(NC(=O)c4cc(F)cc(C(F)(F)F)c4)c4c(c3)C(=O)NC4c3cc(F)ccc3Cl)cc12` (stereo not shown) [Compound I-1039], the IC50 was at most 100 nM.

`O=C(Nc1cc(N2CCn3ncnc3C2)cc2c1C(c1cc(F)ccc1Cl)NC2=O)c1cc(F)cc(C(F)(F)F)c1` (stereo not shown) [Compound I-1040] had an IC50 of at most 100 nM.

Compound `O=C(Nc1cc(-c2cccc3c2CCNC3=O)cc2c1C(c1cc(F)ccc1Cl)NC2=O)c1cc(F)cc(C(F)(F)F)c1` (stereo not shown) [Compound I-1042] yielded an IC50 of at most 100 nM.

Regarding `O=C1COCc2cc(-c3cc(NC(=O)c4cc(F)cc(C(F)(F)F)c4)c4c(c3)C(=O)NC4c3cc(F)ccc3Cl)ccc2N1` (stereo not shown) [Compound I-1043], the IC50 is at most 100 nM.

In the case of `O=C(Nc1cc(-c2cnn3cccnc23)cc2c1C(c1cc(F)ccc1Cl)NC2=O)c1cc(F)cc(C(F)(F)F)c1` (stereo not shown) [Compound I-1046], the IC50 was at most 100 nM.
